Common to all, as to conditions: read-out: Ki app
One experiment deals with Cathepsin B (Homo sapiens, UniProt P07858). In words: Inhibition of human cathepsin B.
The next experiment deals with Cathepsin S (Homo sapiens, UniProt P25774). In words: Inhibition of human cathepsin S.
Another experiment has as its target Procathepsin L (Homo sapiens, UniProt P07711). In words: Inhibition of human cathepsin L.
A further experiment deals with T1, Cathepsin K (Homo sapiens, UniProt P43235).
T1 sequence (P43235 whole entry): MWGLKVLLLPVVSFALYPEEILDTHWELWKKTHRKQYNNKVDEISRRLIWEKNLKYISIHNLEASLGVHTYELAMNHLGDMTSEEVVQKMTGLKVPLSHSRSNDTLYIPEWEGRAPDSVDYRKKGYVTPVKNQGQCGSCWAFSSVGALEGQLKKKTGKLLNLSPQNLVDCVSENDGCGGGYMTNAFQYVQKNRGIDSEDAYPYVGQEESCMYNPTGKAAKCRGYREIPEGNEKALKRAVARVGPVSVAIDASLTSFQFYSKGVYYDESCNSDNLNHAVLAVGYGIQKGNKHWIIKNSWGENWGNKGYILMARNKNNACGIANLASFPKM
In words: Inhibition of human cathepsin K.

Structures are written as SMILES.

Sequence of Cathepsin S (P25774 whole entry): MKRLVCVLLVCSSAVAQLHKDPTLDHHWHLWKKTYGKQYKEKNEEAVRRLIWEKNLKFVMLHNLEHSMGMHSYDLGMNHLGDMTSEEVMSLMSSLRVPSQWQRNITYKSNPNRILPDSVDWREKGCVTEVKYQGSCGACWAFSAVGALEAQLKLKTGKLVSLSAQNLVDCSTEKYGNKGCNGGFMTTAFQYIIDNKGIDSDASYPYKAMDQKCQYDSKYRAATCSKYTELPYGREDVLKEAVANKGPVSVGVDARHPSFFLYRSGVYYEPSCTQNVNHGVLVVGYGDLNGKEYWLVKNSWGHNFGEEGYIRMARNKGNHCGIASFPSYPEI
Sequence of Procathepsin L (P07711 whole entry): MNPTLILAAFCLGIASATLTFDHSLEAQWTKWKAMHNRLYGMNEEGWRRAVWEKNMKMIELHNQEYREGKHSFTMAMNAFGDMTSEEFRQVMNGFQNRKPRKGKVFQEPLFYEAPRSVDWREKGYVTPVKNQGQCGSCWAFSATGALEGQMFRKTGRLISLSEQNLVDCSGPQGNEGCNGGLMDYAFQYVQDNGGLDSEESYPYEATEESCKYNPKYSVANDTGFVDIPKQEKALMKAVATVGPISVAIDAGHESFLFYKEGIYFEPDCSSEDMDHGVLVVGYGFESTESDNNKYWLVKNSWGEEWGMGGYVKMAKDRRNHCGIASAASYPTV

In the case of `CCC[C@H](NC(=O)CCc1ccccc1)C(=O)c1nnc(-c2ccco2)o1`, the Ki at Cathepsin B was found to be 25000 nM; at Cathepsin S it was 2600 nM; on Procathepsin L, 100000 nM; on Cathepsin K it was 9600 nM.
The like results for `CCC[C@H](NC(=O)C1(NC(=O)c2ccc(OC(F)(F)F)cc2)CCCCC1)C(=O)c1nnc(C(C)C)o1` were, in that order, 430 nM, 800 nM, 4600 nM and 35 nM.
Taken in the same sequence, the figures for `CCC[C@H](NC(=O)OCc1ccccc1)C(=O)c1nnc(-c2ccco2)o1` were 34000 nM, 2000 nM, 28000 nM and 3000 nM.
For `CCC[C@H](NC(=O)OC(C)(C)C)C(=O)c1nnc(-c2ccccc2OC)o1`, the Ki on Cathepsin B is over 150000 nM; at Cathepsin S, 19000 nM; at Procathepsin L, over 150000 nM; at Cathepsin K it was 17000 nM.
Regarding `CCC[C@H](NC(=O)C1(NC(=O)c2ccc(OC(F)(F)F)cc2)CCCCC1)C(=O)c1nnc(-c2ccc(C(F)(F)F)cc2)o1`, the Ki at Cathepsin B worked out at 23000 nM; on Cathepsin S, 13000 nM; on Procathepsin L it was 11000 nM; at Cathepsin K it was 550 nM.
Regarding `CCC[C@H](NC(=O)OC(C)(C)C)C(=O)c1nnc(C(C)C)o1`, the Ki was over 150000 nM on Cathepsin B, 130000 nM at Cathepsin S, over 150000 nM at Procathepsin L and 5600 nM at Cathepsin K.
Consider `CCC[C@H](NC(=O)C1(NC(=O)c2ccc(OC(F)(F)F)cc2)CCCCC1)C(=O)c1nnc(-c2ccco2)o1`, for which the Ki is 220 nM on Cathepsin B, 350 nM at Cathepsin S, 1000 nM at Procathepsin L and 1.7 nM on Cathepsin K.
The like results for `CCC[C@H](NC(=O)Cc1ccccc1)C(=O)c1nnc(-c2ccco2)o1` were, in that order, 110000 nM, 9200 nM, 150000 nM and 52000 nM.
Taken in the same sequence, the figures for `CCC[C@H](NC(=O)[C@H](CC(C)C)C(=O)OCc1ccccc1)C(=O)c1nnc(-c2ccco2)o1` were 2 nM, under 0.25 nM, 1 nM and under 0.25 nM.
The like results for `CCC[C@H](NC(=O)C1(NC(=O)c2ccc(OC(F)(F)F)cc2)CCCCC1)C(=O)c1nnc(CC)o1` were, in that order, 98 nM, 470 nM, 300 nM and 7.9 nM.
As for `CCC[C@H](NC(=O)C1(NC(=O)c2ccc(OC(F)(F)F)cc2)CCCCC1)C(=O)c1nnc(-c2ccc(OC)cc2)o1`, the Ki stood at 57000 nM on Cathepsin B, 20000 nM at Cathepsin S, 37000 nM at Procathepsin L and 22 nM at Cathepsin K.
For `CCC[C@H](NC(=O)C1(NC(=O)c2ccc(OC(F)(F)F)cc2)CCCCC1)C(=O)c1nnc(-c2ccccc2)o1`, the Ki on Cathepsin B came out at 73000 nM; on Cathepsin S, 45000 nM; on Procathepsin L it was 19000 nM; at Cathepsin K, 29 nM.
Taken in the same sequence, the figures for `CCC[C@H](NC(=O)C1(NC(=O)c2ccc(OC(F)(F)F)cc2)CCCCC1)C(=O)c1nnc(-c2cccc(OC)c2)o1` were 2100 nM, 10000 nM, 7500 nM and 37 nM.
In the case of `CCC[C@H](NC(=O)C1(NC(=O)c2ccc(OC(F)(F)F)cc2)CCCCC1)C(=O)c1nnc(OC)o1`, the Ki came to 93 nM on Cathepsin B, 320 nM at Cathepsin S, 160 nM at Procathepsin L and 3.3 nM on Cathepsin K.
Taken in the same sequence, the figures for `CCC[C@H](NC(=O)C1(NC(=O)c2ccc(N(C)C)cc2)CCCCC1)C(=O)c1nnc(-c2ccco2)o1` were 730 nM, 700 nM, 960 nM and 0.95 nM.
The like results for `CCC[C@H](NC(=O)OC(C)(C)C)C(=O)c1nnc(-c2cccs2)o1` were, in that order, 120000 nM, 12000 nM, 63000 nM and 810 nM.
Take `CCC[C@H](NC(=O)C1(NC(=O)c2ccc(OC(F)(F)F)cc2)CCCCC1)C(=O)c1nnc(-c2cccs2)o1`: the Ki on Cathepsin B was 270 nM; at Cathepsin S, 760 nM; at Procathepsin L, 2900 nM; at Cathepsin K, 5.2 nM.
The like results for `CCC[C@H](NC(=O)C1(NC(=O)c2ccc(OC(F)(F)F)cc2)CCCCC1)C(=O)c1nnc(-c2cccc(C(F)(F)F)c2)o1` were, in that order, 1100 nM, 3300 nM, 1400 nM and 54 nM.
Taken in the same sequence, the figures for `CCC[C@H](NC(=O)[C@H](CC(C)C)NCC(F)(F)F)C(=O)c1nnc(-c2ccco2)o1` were 48000 nM, 240 nM, 2100 nM and 120 nM.
The like results for `CCC[C@H](NC(=O)OCC(C)C)C(=O)c1nnc(-c2ccco2)o1` were, in that order, 16000 nM, 380 nM, 14000 nM and 500 nM.
As to `CCC[C@H](NC(=O)OC(C)(C)C)C(=O)c1nnc(-c2ccc(N(C)C)cc2)o1`, the Ki is over 150000 nM on Cathepsin B, 28000 nM at Cathepsin S, 130000 nM at Procathepsin L and 33000 nM on Cathepsin K.
Taken in the same sequence, the figures for `CCC[C@H](NC(=O)C1(NC(=O)c2ccc(OC(F)(F)F)cc2)CCCCC1)C(=O)c1nnc(C(C)(C)C)o1` were 10000 nM, 17000 nM, 10000 nM and 1300 nM.
The like results for `CCC[C@H](NC(=O)C1(NC(=O)c2ccc(F)cc2)CCCCC1)C(=O)c1nnc(-c2ccco2)o1` were, in that order, 950 nM, 140 nM, 2900 nM and 19 nM.
The like results for `CCC[C@H](NC(=O)C1(NC(=O)OC(C)(C)C)CCCCC1)C(=O)c1nnc(-c2ccco2)o1` were, in that order, 7300 nM, 960 nM, 18000 nM and 43 nM.
